From patent US20250304537A1 (Repare Therapeutics Inc., priority 2022, published 2025) come the findings set out here.

Read-outs that look alike come from different tables or passages of the source.

For assay [1], the target named is recombinant human Myt1 (full length PKMYT1) (Homo sapiens (Human), UniProt Q99640). Nature of the assay: Recombinant human Myt1 kinase assay (ADP-Glo). Format: biochemical. As to conditions: 10 μM ATP. The essentials: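 ADP-Glo luminescence measured ATP hydrolysis by recombinant full-length PKMYT1 (18 nM) after 60 min at 30 °C with 10 μM ATP. Compounds in 0.5% DMSO were added to the enzyme 15 min before ATP, at 22 °C, in HEPES/MgCl2/MnCl2 buffer. IC50 and percent maximal inhibition were derived.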
A general note: ADP-Glo first removes unused ATP, then detects ADP through luciferase.

Assay [2] concerns PKMYT1 (CDK1 pThr14) in FUOV1 cells. The assay is described as follows: PKMYT1 cell-based activity assay, CDK1 pThr14 AlphaLISA in FUOV1 cells. As to conditions: 2 h, read-out: FUOV-1 CDK1 pThr14 IC50. The essentials:
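IC50 was derived from AlphaLISA signal (excitation 680 nm, emission 615 nm) for phospho-Thr14 CDK1 in lysates. The detection antibodies were rabbit anti-pThr14 and mouse anti-total CDK1, each at 5 nM. FUOV1 ovarian cells were exposed to compound for 2 hours before lysis.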

recombinant human Myt1 (full length PKMYT1), sequence (Q99640 whole entry): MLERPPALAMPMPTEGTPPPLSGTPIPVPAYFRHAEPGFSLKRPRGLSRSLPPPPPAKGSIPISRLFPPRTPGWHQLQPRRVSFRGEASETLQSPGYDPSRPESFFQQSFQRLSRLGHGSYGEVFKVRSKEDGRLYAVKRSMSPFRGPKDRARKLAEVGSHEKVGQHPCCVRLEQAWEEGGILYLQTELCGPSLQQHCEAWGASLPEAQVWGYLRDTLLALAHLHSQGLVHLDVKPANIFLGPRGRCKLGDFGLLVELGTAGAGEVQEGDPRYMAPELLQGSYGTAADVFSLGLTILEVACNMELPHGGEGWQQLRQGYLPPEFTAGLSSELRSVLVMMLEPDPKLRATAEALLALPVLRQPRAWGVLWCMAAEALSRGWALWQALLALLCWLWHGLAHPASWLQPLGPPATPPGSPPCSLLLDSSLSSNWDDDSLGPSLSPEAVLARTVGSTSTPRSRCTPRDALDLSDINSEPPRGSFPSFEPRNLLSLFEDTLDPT

For the molecule `Cc1ccc2[nH]ncc2c1-c1nc(-c2cc(F)c(F)cc2NC(=O)C2(C)CCN(C)C2)nc(C(N)=O)c1N` (stereo not shown) [Compound 484], the values for the IC50 in assay [1] and in assay [2] (2 h compound incubation) were 7 nM and 23 nM, respectively.
The corresponding values for `Cc1ccc2[nH]ncc2c1-c1nc(-c2cc(F)c(F)cc2NC2CCN(C)CC2)nc(C(N)=O)c1N` [Compound 485] are 7 nM and 53 nM.
As for `Cc1ccc2[nH]ncc2c1-c1cc(C(N)=O)nc(-c2cccnc2Nc2nc(F)ccc2F)n1` [Compound 499, 2-(2-((3,6-difluoropyridin-2-yl)amino)pyridin-3-yl)-6-(5-methyl-1H-indazol-4-yl)pyrimidine-4-carboxamide], the half-inhibitory concentration (IC50) (commonly the concentration at which inhibition is half-maximal) in assay [1] came to 4 nM; in assay [2] (2 h compound incubation), 209 nM.
The corresponding values for `Cc1nccc(Nc2cc(F)ccc2-c2nc(C(N)=O)c(N)c(-c3c(C)ccc4[nH]ncc34)n2)n1` [Compound 525] are 5 nM and 19 nM.
Regarding `Cc1ccncc1Nc1ncccc1-c1nc(C(N)=O)c(N)c(-c2c(C)ccc3[nH]ncc23)n1` [Compound 599], the values for the IC50 in assay [1] and in assay [2] (2 h compound incubation) were 363 nM and 630 nM, respectively.
The corresponding values for `Cc1ccc2[nH]ncc2c1-c1nc(-c2cccnc2Nc2cccc(F)c2)nc(C(N)=O)c1N` [Compound 600] are 10 nM and 885 nM.
Taken in the same sequence, the figures for `Cc1ccc2[nH]ncc2c1-c1nc(-c2cccnc2NC[C@H]2CCCO2)nc(C(N)=O)c1N` [Compound 601] were 3 nM and 467 nM.
Consider `Cc1ccc2[nH]ncc2c1-c1nc(-c2cccnc2NC[C@@H]2CCOC2)nc(C(N)=O)c1N` [Compound 602], for which the figures for the IC50 in assay [1] and in assay [2] (2 h compound incubation) were 4 nM and 29 nM, respectively.
Regarding `Cc1ccc2[nH]ncc2c1-c1nc(-c2cccnc2N[C@@H]2CCO[C@H](C)C2)nc(C(N)=O)c1N` [Compound 603], the IC50 turned out to be 4 nM in assay [1] and 25 nM in assay [2] (2 h compound incubation).
The corresponding values for `Cc1ccc2[nH]ncc2c1-c1nc(-c2cccnc2NCC2CCCCO2)nc(C(N)=O)c1N` (stereo not shown) [Compound 604] are 16 nM and 794 nM.
For `Cc1ccc2[nH]ncc2c1-c1nc(-c2cccnc2N[C@@H]2CCO[C@@H](C)C2)nc(C(N)=O)c1N` [Compound 605], the IC50 in assay [1] stood at 4 nM; in assay [2] (2 h compound incubation), 283 nM.
In the case of `Cc1ccc2[nH]ncc2c1-c1nc(-c2cccnc2NC2CCOCC2C)nc(C(N)=O)c1N` (stereo not shown) [Compound 606], the IC50 in assay [1] is 2 nM; in assay [2] (2 h compound incubation), 67 nM.
For the molecule `Cc1ccc2[nH]ncc2c1-c1nc(-c2cccnc2Nc2ccccc2)nc(C(N)=O)c1N` [Compound 607], the IC50 in assay [1] amounted to 6 nM; in assay [2] (2 h compound incubation) it was 319 nM.
The corresponding values for `Cc1ccc2[nH]ncc2c1-c1nc(-c2cccnc2Nc2cccc(C(F)(F)F)c2)nc(C(N)=O)c1N` [Compound 608] are 29 nM and 1390 nM.
Turning to `Cc1ccc2[nH]ncc2c1-c1nc(-c2cccnc2Nc2cccc(C(N)=O)c2)nc(C(N)=O)c1N` [Compound 609], the IC50 in assay [1] is 4 nM; in assay [2] (2 h compound incubation) it was 414 nM.
Taken in the same sequence, the figures for `Cc1ccc2[nH]ncc2c1-c1nc(-c2cccnc2Nc2ccccc2F)nc(C(N)=O)c1N` [Compound 610] were 10 nM and 397 nM.
Taken in the same sequence, the figures for `Cc1ccc2[nH]ncc2c1-c1nc(-c2ccc(F)cc2Nc2ncccc2Cl)nc(C(N)=O)c1N` [Compound 611] were 21 nM and 22 nM.
With `Cc1ccc2[nH]ncc2c1-c1nc(-c2ccc(F)cc2Nc2cc(C#N)ccn2)nc(C(N)=O)c1N` [Compound 612], the results for the IC50 in assay [1] and in assay [2] (2 h compound incubation) were 12 nM and 214 nM, respectively.
Turning to `Cc1ccc2[nH]ncc2c1-c1nc(-c2ccc(F)cc2Nc2ncccc2C#N)nc(C(N)=O)c1N` [Compound 613], the concentration for half-maximal inhibition (IC50) worked out at 4 nM in assay [1] and 6 nM in assay [2] (2 h compound incubation).
The corresponding values for `COc1cccnc1Nc1cc(F)ccc1-c1nc(C(N)=O)c(N)c(-c2c(C)ccc3[nH]ncc23)n1` [Compound 614] are 10 nM and 37 nM.
Taken in the same sequence, the figures for `Cc1ccc2[nH]ncc2c1-c1nc(-c2ccc(F)cc2Nc2cc(C3CC3)ncn2)nc(C(N)=O)c1N` [Compound 615] were 16 nM and 515 nM.
The corresponding values for `Cc1ccnc(Nc2cc(F)ccc2-c2nc(C(N)=O)c(N)c(-c3c(C)ccc4[nH]ncc34)n2)c1` [Compound 616] are 11 nM and 192 nM.
Consider `Cc1cncnc1Nc1cc(F)ccc1-c1nc(C(N)=O)c(N)c(-c2c(C)ccc3[nH]ncc23)n1` [Compound 617], for which the IC50 is 4 nM in assay [1] and 7 nM in assay [2] (2 h compound incubation).
Taken in the same sequence, the figures for `Cc1ncc(C#N)c(Nc2cc(F)ccc2-c2nc(C(N)=O)c(N)c(-c3c(C)ccc4[nH]ncc34)n2)n1` [Compound 618] were 3 nM and 5 nM.
Taken in the same sequence, the figures for `Cc1ccc2[nH]ncc2c1-c1nc(-c2ccc(F)cc2Nc2ccnc(C(C)C)c2)nc(C(N)=O)c1N` [Compound 619] were 6 nM and 277 nM.
The corresponding values for `Cc1ccc2[nH]ncc2c1-c1nc(-c2ccc(F)cc2Nc2ccnc(C#N)c2)nc(C(N)=O)c1N` [Compound 620] are 3 nM and 41 nM.
Turning to `Cc1ccc2[nH]ncc2c1-c1nc(-c2cccnc2Nc2ncccc2F)nc(C(N)=O)c1N` [Compound 621], the IC50 in assay [1] and in assay [2] (2 h compound incubation) was 3 nM throughout.
With `Cc1cccnc1Nc1ncccc1-c1nc(C(N)=O)c(N)c(-c2c(C)ccc3[nH]ncc23)n1` [Compound 622], the IC50 worked out at 4 nM in assay [1] and 10 nM in assay [2] (2 h compound incubation).
Taken in the same sequence, the figures for `Cc1ccc2[nH]ncc2c1-c1nc(-c2cccnc2Nc2cccnc2C)nc(C(N)=O)c1N` [Compound 623] were 4 nM and 179 nM.
With `Cc1cc(Nc2cc(F)ccc2-c2nc(C(N)=O)c(N)c(-c3c(C)ccc4[nH]ncc34)n2)cc(C)n1` [Compound 624], the results for the concentration for half-maximal inhibition (IC50) in assay [1] and in assay [2] (2 h compound incubation) were 8 nM and 489 nM, respectively.
The corresponding values for `Cc1ccc2[nH]ncc2c1-c1nc(-c2cccnc2NCC(F)F)nc(C(N)=O)c1N` [Compound 625] are 5 nM and 42 nM.
Taken in the same sequence, the figures for `Cc1cccc(Nc2ncccc2-c2nc(C(N)=O)c(N)c(-c3c(C)ccc4[nH]ncc34)n2)n1` [Compound 626] were 5 nM and 530 nM.
The corresponding values for `Cc1ccc(-c2nc(C(N)=O)c(N)c(-c3c(C)ccc4[nH]ncc34)n2)c(Nc2nccnc2C)n1` [Compound 658] are 5 nM and 8 nM.
Consider `Cc1nccc(Nc2cc(C#N)ccc2-c2nc(C(N)=O)c(N)c(-c3c(C)ccc4[nH]ncc34)n2)n1` [Compound 766], for which the half-maximal inhibitory concentration (IC50) amounted to 3 nM in assay [1] and 41 nM in assay [2] (2 h compound incubation).
The corresponding values for `Cc1ccc2[nH]ncc2c1-c1nc(-c2ccccc2C(C)O)nc(C(N)=O)c1N` (stereo not shown) [Compound 787] are 4 nM and 278 nM.
For `Cc1ccc2[nH]ncc2c1-c1nc(-c2ccccc2C(O)c2ccccn2)nc(C(N)=O)c1N` (stereo not shown) [Compound 788], the 50% inhibitory concentration (IC50) in assay [1] stood at 44 nM; in assay [2] (2 h compound incubation) it was 1270 nM.
With `Cc1ccc2[nH]ncc2c1-c1nc(-c2ccccc2S(=O)(=O)NC(C)(C)C)nc(C(N)=O)c1N` [Compound 792], the IC50 in assay [1] is 10100 nM; in assay [2] (2 h compound incubation) it was above 10000 nM.
Taken in the same sequence, the figures for `CCOc1ccccc1-c1nc(C(N)=O)c(N)c(-c2c(C)ccc3[nH]ncc23)n1` [Compound 794] were 53 nM and 641 nM.
On to `CNS(=O)(=O)c1ccccc1-c1nc(C(N)=O)c(N)c(-c2c(C)ccc3[nH]ncc23)n1` [Compound 795], for which the IC50 in assay [1] is 2520 nM; in assay [2] (2 hours with compound), above 10000 nM.
For the molecule `CCCc1ccccc1-c1nc(C(N)=O)c(N)c(-c2c(C)ccc3[nH]ncc23)n1` [Compound 796], the IC50 in assay [1] was 15 nM; in assay [2] (2 hours with compound), 781 nM.
Taken in the same sequence, the figures for `Cc1ccc2[nH]ncc2c1-c1nc(-c2cccnc2NS(C)(=O)=O)nc(C(N)=O)c1N` [Compound 804, 5-amino-6-(5-methyl-1H-indazol-4-yl)-2-(2-(methylsulfonamido)pyridin-3-yl)pyrimidine-4-carboxamide] were 8 nM and 62 nM.
The corresponding values for `Cc1ccc2[nH]ncc2c1-c1nc(-c2cccnc2NC(=O)C(C)(C)C)nc(C(N)=O)c1N` [Compound 805, 5-amino-6-(5-methyl-1H-indazol-4-yl)-2-(2-pivalamidopyridin-3-yl)pyrimidine-4-carboxamide] are 3 nM and 71 nM.
Take `CCNC(=O)c1ccccc1-c1nc(C(N)=O)c(N)c(-c2c(C)ccc3[nH]ncc23)n1` [Compound 807]: the concentration for half-maximal inhibition (IC50) in assay [1] was 4050 nM; in assay [2] (2 hours with compound), above 10000 nM.
The corresponding values for `Cc1ccc2[nH]ncc2c1-c1nc(-c2ccccc2-c2ncc[nH]2)nc(C(N)=O)c1N` [Compound 808] are 14 nM and above 10000 nM.
Taken in the same sequence, the figures for `Cc1ccc2[nH]ncc2c1-c1nc(Nc2ncccc2-c2ccncn2)nc(C(N)=O)c1N` [Compound 818, 5-amino-6-(5-methyl-1H-indazol-4-yl)-2-((3-(pyrimidin-4-yl)pyridin-2-yl)amino)pyrimidine-4-carboxamide] were 3880 nM and above 10000 nM.
`Cc1ccc2[nH]ncc2c1-c1nc(-c2cccnc2N[C@@H]2CCOCC2(C)C)nc(C(N)=O)c1N` [Compound 829]: the half-inhibitory concentration (IC50) in assay [1] is below 3 nM; in assay [2] (2 hours with compound) it was 10 nM.
Taken in the same sequence, the figures for `Cc1ccc2[nH]ncc2c1-c1nc(-c2cccnc2N[C@H]2CCOCC2(C)C)nc(C(N)=O)c1N` [Compound 830] were 8 nM and 305 nM.
